The target of the assay is T1, human TLR7 (Homo sapiens, UniProt Q9NYK1).
T1 construct: host or cells: HEK293 (HEK-Blue hTLR7)
T1 sequence (Q9NYK1 27-1049): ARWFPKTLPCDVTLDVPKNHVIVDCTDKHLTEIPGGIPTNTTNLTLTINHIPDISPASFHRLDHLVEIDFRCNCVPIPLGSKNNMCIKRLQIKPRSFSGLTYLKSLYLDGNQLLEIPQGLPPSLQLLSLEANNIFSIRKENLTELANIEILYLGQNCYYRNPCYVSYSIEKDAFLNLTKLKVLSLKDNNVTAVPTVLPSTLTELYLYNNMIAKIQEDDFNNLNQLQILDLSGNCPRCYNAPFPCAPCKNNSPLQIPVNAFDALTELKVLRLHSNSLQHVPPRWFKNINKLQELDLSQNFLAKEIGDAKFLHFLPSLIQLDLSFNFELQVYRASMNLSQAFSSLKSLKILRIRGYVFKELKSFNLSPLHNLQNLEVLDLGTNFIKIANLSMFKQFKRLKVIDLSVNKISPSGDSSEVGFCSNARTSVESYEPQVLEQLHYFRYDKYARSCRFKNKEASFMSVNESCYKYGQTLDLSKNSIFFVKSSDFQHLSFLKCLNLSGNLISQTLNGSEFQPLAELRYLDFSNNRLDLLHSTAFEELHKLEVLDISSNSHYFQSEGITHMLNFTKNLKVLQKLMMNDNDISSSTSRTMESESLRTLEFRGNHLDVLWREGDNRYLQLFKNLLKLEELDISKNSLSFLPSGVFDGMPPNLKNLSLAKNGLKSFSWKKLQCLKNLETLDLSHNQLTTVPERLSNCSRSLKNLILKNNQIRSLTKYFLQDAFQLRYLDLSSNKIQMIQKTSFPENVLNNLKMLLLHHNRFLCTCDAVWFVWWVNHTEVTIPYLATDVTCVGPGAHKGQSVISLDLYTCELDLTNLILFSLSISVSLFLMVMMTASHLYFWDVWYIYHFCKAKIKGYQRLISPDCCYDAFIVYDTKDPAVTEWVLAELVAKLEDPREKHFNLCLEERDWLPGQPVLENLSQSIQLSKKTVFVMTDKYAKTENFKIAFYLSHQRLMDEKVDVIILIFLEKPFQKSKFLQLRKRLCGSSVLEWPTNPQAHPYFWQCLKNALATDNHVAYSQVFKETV
The assay can be described thus: HEK293-Blue-hTLR-7 cells assay (SEAP reporter, R848 stimulation). In kind it is cell-based. The following applies: HEK293-Blue-hTLR7 cells, R848, 20 hrs; read-out: HEK/hTLR7 IC50. The text has this: HEK293-Blue-hTLR-7 Cells Assay:
A stable HEK293-Blue-hTLR-7 cell line was purchased from InvivoGen (Cat. #: hkb-ht1r7, San Diego, Calif., USA). These cells were originally designed for studying the stimulation of human TLR7 by monitoring the activation of NF-κB. A SEAP (secreted embryonic alkaline phosphatase) reporter gene was placed under the control of the IFN-β minimal promoter fused to five NF-κB and AP-1-binding sites. The SEAP was induced by activating NF-κB and AP-1 via stimulating HEK-Blue hTLR7 cells with TLR7 ligands. Therefore the reporter expression was declined by TLR7 antagonist under the stimulation of a ligand, such as R848 (Resiquimod), for incubation of 20 hrs. The cell culture supernatant SEAP reporter activity was determined using QUANTI-Blue™ kit (Cat. #: rep-qb1, Invivogen, San Diego, Ca, USA) at a wavelength of 640 nm, a detection medium that turns purple or blue in the presence of alkaline phosphatase.
HEK293-Blue-hTLR7 cells were incubated at a density of […] cells/mL in a volume of 170 μL in a 96-well plate in Dulbecco's Modified Eagle's medium (DMEM) containing 4.5 g/L glucose, 50 U/mL penicillin, […], […], 2 mM L-glutamine, 10% (v/v) heat-inactivated fetal bovine serum with addition of 20 μL test compound in a serial dilution in the presence of final DMSO at 1% and 10 μL of 20 uM R848 in above DMEM, perform incubation under 37° C. in a CO2 incubator for 20 hrs. Then 20 μL of the supernatant from each well was incubated with 180 μL Quanti-blue substrate solution at 37° C. for 2 hrs and the absorbance was read at 620˜655 nm using a spectrophotometer. The signaling pathway that TLR7 activation leads to downstream NF-κB activation has been widely accepted, and therefore similar reporter assay was modified for evaluating TLR7 antagonist.
As to `[2H]c1ccc2c(N3C[C@H](CN4CCN(c5ccc(N6C[C@H](N)[C@@H](F)C6)nc5)CC4)O[C@H](C)C3)ccc(C#N)c2n1` [Example 150, 5-[(2S,6R)-2-[[4-[6-[(3S,4S)-3-amino-4-fluoro-pyrrolidin-1-yl]-3-pyridyl]piperazin-1-yl]methyl]-6-methyl-morpholin-4-yl]-2-deuterio-quinoline-8-carbonitrile], the IC50 was 0.035 µM.

`CO[C@H]1CN(c2nccc(N3CCN(C[C@H]4CN(c5ccc(C#N)c6nccnc56)C[C@@H](C)O4)CC3)n2)C[C@@H]1N` [Example 99, 8-[(2S,6R)-2-[[4-[2-[(3S,4S)-3-amino-4-methoxy-pyrrolidin-1-yl]pyrimidin-4-yl]piperazin-1-yl]methyl]-6-methyl-morpholin-4-yl]quinoxaline-5-carbonitrile]: the IC50 is 0.011 µM.

Regarding `Cc1cc(N2C[C@@H](N)[C@](C)(O)C2)nc(N2CCN(C[C@H]3CN(c4ccc(C#N)c5nccnc45)C[C@@H](C)O3)CC2)n1` [Example 125, 8-[(2S,6R)-2-[[4-[4-[(3R,4R)-4-amino-3-hydroxy-3-methyl-pyrrolidin-1-yl]-6-methyl-pyrimidin-2-yl]piperazin-1-yl]methyl]-6-methyl-morpholin-4-yl]quinoxaline-5-carbonitrile], the IC50 turned out to be 0.047 µM.

`[2H]c1ccc2c(N3C[C@H](CN4CCN(c5cccc(N6CC(C)(N)C6)n5)CC4)O[C@H](C)C3)ccc(C#N)c2n1` [Example 155, 5-[(2S,6R)-2-[[4-[6-(3-amino-3-methyl-azetidin-1-yl)-2-pyridyl]piperazin-1-yl]methyl]-6-methyl-morpholin-4-yl]-2-deuterio-quinoline-8-carbonitrile]: the IC50 was determined as 0.018 µM.

For the compound `[2H]c1ccc2c(N3C[C@H](CN4CCN(c5ccc(N6CC(C)(N)C6)nc5C)CC4)O[C@H](C)C3)ccc(C#N)c2n1` [Example 137, 5-[(2S,6R)-2-[[4-[6-(3-amino-3-methyl-azetidin-1-yl)-2-methyl-3-pyridyl]piperazin-1-yl]methyl]-6-methyl-morpholin-4-yl]-2-deuterio-quinoline-8-carbonitrile], the IC50 was 0.019 µM.

For `CO[C@@H]1CN(c2nccc(N3CCN(C[C@H]4CN(c5ccc(C#N)c6nccnc56)C[C@@H](C)O4)CC3)n2)C[C@H]1N` [Example 98, 8-[(2S,6R)-2-[[4-[2-[(3R,4R)-3-amino-4-methoxy-pyrrolidin-1-yl]pyrimidin-4-yl]piperazin-1-yl]methyl]-6-methyl-morpholin-4-yl]quinoxaline-5-carbonitrile], the IC50 is 0.006 µM.

Regarding `Cc1cc(N2C[C@@H](N)[C@@H](F)C2)nc(N2CCN(C[C@H]3CN(c4ccc(C#N)c5nccnc45)C[C@@H](C)O3)CC2)n1` [Example 115, 8-[(2S,6R)-2-[[4-[4-[(3R,4S)-3-amino-4-fluoro-pyrrolidin-1-yl]-6-methyl-pyrimidin-2-yl]piperazin-1-yl]methyl]-6-methyl-morpholin-4-yl]quinoxaline-5-carbonitrile], the IC50 came to 0.004 µM.

Regarding `C[C@@H]1CN(c2ccc(C#N)c3nccnc23)C[C@H](CN2CCN(c3ccnc(N4CC[C@H](N)[C@H](F)C4)n3)CC2)O1` [Example 111, 8-[(2S,6R)-2-[[4-[2-[(3R,4S)-4-amino-3-fluoro-1-piperidyl]pyrimidin-4-yl]piperazin-1-yl]methyl]-6-methyl-morpholin-4-yl]quinoxaline-5-carbonitrile], the IC50 is 0.003 µM.

`[2H]c1ccc2c(N3C[C@H](CN4CC(O)(c5ccc(N6CC(C)(N)C6)cc5)C4)O[C@H](C)C3)ccc(C#N)c2n1` [Example 156, 5-[(2S,6R)-2-[[3-[4-(3-amino-3-methyl-azetidin-1-yl)phenyl]-3-hydroxy-azetidin-1-yl]methyl]-6-methyl-morpholin-4-yl]-2-deuterio-quinoline-8-carbonitrile]: the IC50 came out at 0.021 µM.

As to `Cc1cc(N2CC(N)C2)nc(N2CCN(C[C@H]3CN(c4ccc(C#N)c5nccnc45)C[C@@H](C)O3)CC2)n1` [Example 123, 8-[(2S,6R)-2-[[4-[4-(3-aminoazetidin-1-yl)-6-methyl-pyrimidin-2-yl]piperazin-1-yl]methyl]-6-methyl-morpholin-4-yl]quinoxaline-5-carbonitrile], the IC50 amounted to 0.003 µM.

Regarding `[2H]c1ccc2c(N3C[C@H](CN4CCN(c5nc(C)cc(N6CC(N)C6)n5)CC4)O[C@H](C)C3)ccc(C#N)c2n1` [Example 136, 5-[(2S,6R)-2-[[4-[4-(3-aminoazetidin-1-yl)-6-methyl-pyrimidin-2-yl]piperazin-1-yl]methyl]-6-methyl-morpholin-4-yl]-2-deuterio-quinoline-8-carbonitrile], the IC50 worked out at 0.007 µM.

For the compound `[2H]c1ccc2c(N3C[C@H](CN4CC(c5ccc(N6C[C@H](OC)[C@@H](N)C6)cc5)C4)O[C@H](C)C3)ccc(C#N)c2n1` [Example 140, 5-[(2S,6R)-2-[[3-[4-[(3S,4S)-3-amino-4-methoxy-pyrrolidin-1-yl]phenyl]azetidin-1-yl]methyl]-6-methyl-morpholin-4-yl]-2-deuterio-quinoline-8-carbonitrile], the IC50 came out at 0.022 µM.

For `[2H]c1ccc2c(N3C[C@H](CN4CC(c5ccc(N6C[C@@H](N)[C@H](OC)C6)nc5)C4)O[C@H](C)C3)ccc(C#N)c2n1` [Example 149, 5-[(2S,6R)-2-[[3-[6-[(3R,4R)-3-amino-4-methoxy-pyrrolidin-1-yl]-3-pyridyl]azetidin-1-yl]methyl]-6-methyl-morpholin-4-yl]-2-deuterio-quinoline-8-carbonitrile], the IC50 amounted to 0.016 µM.

On to `[2H]c1ccc2c(N3C[C@H](CN4CCN(c5ccc(N6CC7(CN(C)C7)C6)nc5)CC4)O[C@H](C)C3)ccc(C#N)c2n1` [Example 161, 2-deuterio-5-[(2R,6S)-2-methyl-6-[[4-[6-(6-methyl-2,6-diazaspiro[3.3]heptan-2-yl)-3-pyridyl]piperazin-1-yl]methyl]morpholin-4-yl]quinoline-8-carbonitrile], for which the IC50 worked out at 0.008 µM.

`C[C@@H]1CN(c2ccc(C#N)c3ncccc23)C[C@H](CN2CCN(c3ccc(CN)cc3)CC2)O1` [Example 5, 5-[(2S,6R)-2-[[4-[4-(aminomethyl)phenyl]piperazin-1-yl]methyl]-6-methyl-morpholin-4-yl]quinoline-8-carbonitrile]: the IC50 turned out to be 0.054 µM.

Turning to `CO[C@H]1CN(c2ccnc(N3CCN(C[C@H]4CN(c5ccc(C#N)c6ncccc56)C[C@@H](C)O4)CC3)n2)C[C@@H]1N` [Example 97, 5-[(2S,6R)-2-[[4-[4-[(3S,4S)-3-amino-4-methoxy-pyrrolidin-1-yl]pyrimidin-2-yl]piperazin-1-yl]methyl]-6-methyl-morpholin-4-yl]quinoline-8-carbonitrile], the IC50 came to 0.027 µM.

With `COC1CCN(c2nccc(N3CCN(C[C@H]4CN(c5ccc(C#N)c6ncccc56)C[C@@H](C)O4)CC3)n2)CC1N` (stereo partly drawn) [Example 109, 5-[(2S,6R)-2-[[4-[2-(3-amino-4-methoxy-1-piperidyl)pyrimidin-4-yl]piperazin-1-yl]methyl]-6-methyl-morpholin-4-yl]quinoline-8-carbonitrile], the IC50 worked out at 0.016 µM.

Take `Cc1cnc(N2CCN(C[C@H]3CN(c4ccc(C#N)c5ncccc45)C[C@@H](C)O3)CC2)nc1N1CCNCC1` [Example 102, 5-[(2R,6S)-2-methyl-6-[[4-(5-methyl-4-piperazin-1-yl-pyrimidin-2-yl)piperazin-1-yl]methyl]morpholin-4-yl]quinoline-8-carbonitrile]: the IC50 was 0.018 µM.

For the origin of these results see patent US20210395239A1 (Hoffmann-La Roche Inc., priority 2018, published 2021).
